A short description of assay [1]: Selectivity index is the ratio of CC50/EC50. Format: functional.
Assay [2] has as its system MT4. The assay is described as follows: Cytotoxic concentration of compound required to reduce the viability of mock-infected MT-4 cells by 50%. Format: functional. The conditions noted are these: Homo sapiens.
Assay [3] deals with MT4. The assay can be described thus: Concentration required to achieve 50% protection of MT-4 cells against cytopathic effect of HIV-1. Format: functional, cell-based. The conditions noted are these: Homo sapiens. For orientation: Damage to the host cells serves as the signal in cytopathic effect assays.
The target of assay [4] is T1, Human immunodeficiency virus type 1 reverse transcriptase (Human immunodeficiency virus 1, UniProt Q72547). The assay can be described thus: Inhibitory effect on HIV-1 reverse transcriptase activity using poly(rA)-oligo(dT) template primer.
Assay [5] addresses T1, Human immunodeficiency virus type 1 reverse transcriptase. The assay can be described thus: Inhibitory effect on HIV-1 reverse transcriptase activity using poly(rC)-oligo(dG) template primer.

Structures are written as SMILES. Where only a bound is given, the exact number is not on record here.

In general, CC50 refers to the concentration that lowers cell viability or growth by half. Low values mean harm at low concentration, high ones better tolerance by the cells. As usually defined, the EC50 is the concentration at which the effect is half-maximal. A high value points to a less potent agent. On to `O=c1cc(Sc2ccccc2)n(COCCO)c(=O)[nH]1`, for which the SI in assay [1] was less than 3.7. In addition, in the assay with MT4 [2], the CC50 came out at 1850 µM. The same molecule returned an EC50 in the assay with MT4 [3] of more than 500 µM.

For the molecule `Cc1cn([C@H]2C[C@H](N=[N+]=[N-])[C@@H](CO)O2)c(=O)[nH]c1=O` [ZIDOVUDINE], the SI in assay [1] is 1250. In the assay with MT4 [2], this molecule gave a cytotoxic concentration (CC50) of 20 µM. It took 0.016 µM to reach a half-maximal effect with MT4 [3] (EC50).

`O=c1[nH]c(=O)n(COCCO)c(Sc2ccccc2)c1F`: the SI in assay [1] is less than 2.9. The molecule further displayed a CC50 in the assay with MT4 [2] of 288 µM. The molecule also displayed a half-maximal effective concentration (EC50) in the assay on MT4 [3] of more than 100 µM.

On to `O=c1[nH]c(=O)n(COCCO)c(Sc2ccccc2)c1Br`, for which the SI in assay [1] was less than 2.2. The midpoint of cytotoxicity in the assay on MT4 [2], the CC50, lay at 44 µM. In addition, the EC50 in the assay on MT4 [3] was more than 20 µM.

As a reminder, the IC50 is the point on the concentration scale where inhibition reaches its midpoint. A high value points to a need for much substance. As to `Cc1c(Sc2ccccc2)n(COCCO)c(=O)[nH]c1=O` [HEPT], the IC50 was more than 500 µM in assay [4] and 150 µM in assay [5]. In the assay on MT4 [2], this molecule displayed a CC50 of 740 µM. The same molecule displayed an EC50 with MT4 [3] of 7 µM.

Take `Nc1ncnc2c1ncn2[C@H]1CC[C@@H](CO)O1`: in assay [1], the SI was 141. In the assay on MT4 [2], this molecule gave a CC50 of 890 µM. Moreover, the EC50 with MT4 [3] is 6.3 µM.

For `O=c1[nH]c(=O)n(COCCO)c(I)c1Cl`, in assay [1], the SI was less than 2.2. The CC50 in the assay on MT4 [2] is 13 µM. In addition, the EC50 in the assay on MT4 [3] was more than 6 µM.

As to `Nc1ccn([C@H]2CC[C@@H](CO)O2)c(=O)n1` [ZALCITABINE], the SI in assay [1] came to 133. The molecule further showed a CC50 in the assay on MT4 [2] of 40 µM. The EC50 in the assay on MT4 [3] is 0.3 µM.

Turning to `O=c1[nH]c(=O)n(COCCO)c(I)c1F`, the SI in assay [1] is less than 2.1. The molecule also yielded a CC50 in the assay with MT4 [2] of 32 µM. For the same molecule, the EC50 in the assay on MT4 [3] was more than 15 µM.

`O=c1cc(I)n(COCCO)c(=O)[nH]1`: in assay [1], the SI was less than 2.5. The molecule further showed a CC50 in the assay with MT4 [2] of 75 µM. The EC50 in the assay on MT4 [3] is more than 30 µM.

For `Cc1c(Sc2ccccc2)n(COCCOP(=O)(O)P(=O)(O)P(=O)(O)O)c(=O)[nH]c1=O`, the IC50 in assay [4] was 280 µM; in assay [5] it was 500 µM.

Turning to `O=c1[nH]c(=O)n(COCCO)c(I)c1Br`, the SI in assay [1] is less than 2.3. Besides, the CC50 in the assay on MT4 [2] is 11.5 µM. For the same molecule, the EC50 in the assay with MT4 [3] is more than 5 µM.

Take `O=c1[nH]c(=O)n(COCCO)c(Sc2ccccc2)c1Cl`: the SI in assay [1] is less than 3.4. This molecule gave a CC50 in the assay with MT4 [2] of 100 µM. The molecule further gave an EC50 in the assay with MT4 [3] of more than 30 µM.

`Cc1cn(C2CC(N=[N+]=[N-])C(COP(=O)(O)P(=O)(O)P(=O)(O)O)O2)c(=O)[nH]c1=O` (stereo not drawn) returned an IC50 in assay [4] of 0.034 µM.

On to `Cc1c(I)n(COCCO)c(=O)[nH]c1=O`, for which the SI in assay [1] is less than 5. The molecule further returned a CC50 with MT4 [2] of 400 µM. In the assay on MT4 [3], this molecule yielded an EC50 of more than 80 µM.

Source of the values: ChEMBL document CHEMBL1124679, “A novel lead for specific anti-HIV-1 agents: 1-[(2-hydroxyethoxy)methyl]-6-(phenylthio)thymine” (J Med Chem, 1989).
